Test system: IL-2 production
Assay: Inhibition of IL-2 production in PHA-activated Jurkat cells (ELISA)
Assay type: cell-based
Conditions: Homo sapiens, 20 h, PHA 2.5 μg/mL, IL-2 ELISA, values given as ranges
Experimental: Jurkat cells were placed in a 96 well plate (0.5 million cells per well in 1% FBS medium) then a test compound of this invention was added at different concentrations. After 10 minutes, the cells were activated with PHA (final concentration 2.5 μg/mL) and incubated for 20 hours at 37° C. under CO2. The final volume was 200 μL. Following incubation, the cells were centrifuged and the supernatants collected and stored at −70° C. prior to assaying for IL-2 production. A commercial ELISA kit (IL-2 Eli-pair, Diaclone Research, Besancon, France) was used to detect production of IL-2, from which dose response curves were obtained. The IC50 value was calculated as the concentration at which 50% of maximum IL-2 production after stimulation was inhibited versus a non-stimulation control. Inhibition of other cytokines, such as IL-4, IL-5, IL-13, GM-CSF, TNF-α, and INF-γ, can be tested in a similar manner using a commercially available ELISA kit for each cytokine.

| Structure (SMILES) | IC50 [nM] |
| --- | --- |
| O=C(Nc1c(F)cccc1F)c1cc2c(s1)-c1cc(Br)ccc1CCC2 [Compound 1] | ≤ 30 |
| O=C(Nc1c(F)cccc1F)c1cc2c(s1)-c1cc(-c3cccnc3)ccc1CCC2 [Compound 2] | ≤ 30 |
| COc1ccc2c(c1)CCCc1sc(NC(=O)c3c(F)cccc3F)nc1-2 [Compound 42] | > 1000 |
| O=C(Nc1nc2c(s1)CCCc1ccc(Br)cc1-2)c1c(F)cccc1F [Compound 43] | > 1000 |
| O=C(Nc1c(F)cccc1F)c1cnc2c(c1)CCCc1ccc(-c3cccnc3)cc1-2 [Compound 45] | 100 to 250 |
| Cc1nc2c(cc1C(=O)Nc1c(F)cccc1F)CCCc1ccc(-c3cccnc3)cc1-2 [Compound 48] | 100 to 250 |
| O=C(Nc1cnc2c(n1)CCCC1=C2CN(c2nccs2)CC1)c1c(F)cccc1F [Compound 91] | 30 to 100 |
| O=C(Nc1c(F)cccc1F)c1nc2c(s1)-c1cc(-n3ccnc3)ccc1CCC2 [Compound 113] | ≤ 30 |
| Cc1nccn1-c1ccc2c(c1)-c1sc(C(=O)Nc3c(F)cccc3F)nc1CCC2 [Compound 115] | 250 to 500 |
| Cc1cn(-c2ccc3c(c2)-c2sc(C(=O)Nc4c(F)cccc4F)nc2CCC3)cn1 [Compound 117] | 30 to 100 |
| O=C(Nc1c(F)cccc1F)c1nc2c(s1)-c1cc(-n3cnnc3)ccc1CCC2 [Compound 121] | 30 to 100 |
| O=C(Nc1ccc(F)cc1F)c1nc2c(s1)-c1cc(-n3ccnc3)ccc1CCC2 [Compound 122] | 100 to 250 |
| O=C(Nc1ccc(F)c(F)c1F)c1nc2c(s1)-c1cc(-n3ccnc3)ccc1CCC2 [Compound 124] | 250 to 500 |
| O=C(Nc1c(F)ccc(F)c1F)c1nc2c(s1)-c1cc(-n3ccnc3)ccc1CCC2 [Compound 126] | ≤ 30 |
| O=C(Nc1c(F)cc(F)cc1F)c1nc2c(s1)-c1cc(-n3ccnc3)ccc1CCC2 [Compound 130] | 30 to 100 |
| Cc1cnccc1NC(=O)c1nc2c(s1)-c1cc(-n3ccnc3)ccc1CCC2 [Compound 132] | 100 to 250 |
| CCc1cn(-c2ccc3c(c2)-c2ncc(NC(=O)c4c(F)cccc4F)nc2CCC3)cn1 [Compound 134] | ≤ 30 |

Reference: patent US20110052643A1, “COMPOUNDS FOR INFLAMMATION AND IMMUNE-RELATED USES” (Synta Pharmaceuticals Corp., priority 2008, published 2011)
